# In ChEMBL document CHEMBL1201862, “PubChem BioAssay data set” (2004):
# Active and inactive are the calls of the source.
# Experiments:
# Kallikrein-7 = Kallikrein-7 (Homo sapiens, UniProt P49862); experiment: Fluorescence Intensity-based biochemical primary high throughput dose response assay to identify activators of kallikrein-7 (K7) zymogen.
# Cytochrome P450 1A2 = biological target: T1, Cytochrome P450 1A2 (Homo sapiens, UniProt P05177);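 further: PubChem cytochrome P450 panel assay, CYP1A2 panel member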
# T1 sequence (P05177 whole entry): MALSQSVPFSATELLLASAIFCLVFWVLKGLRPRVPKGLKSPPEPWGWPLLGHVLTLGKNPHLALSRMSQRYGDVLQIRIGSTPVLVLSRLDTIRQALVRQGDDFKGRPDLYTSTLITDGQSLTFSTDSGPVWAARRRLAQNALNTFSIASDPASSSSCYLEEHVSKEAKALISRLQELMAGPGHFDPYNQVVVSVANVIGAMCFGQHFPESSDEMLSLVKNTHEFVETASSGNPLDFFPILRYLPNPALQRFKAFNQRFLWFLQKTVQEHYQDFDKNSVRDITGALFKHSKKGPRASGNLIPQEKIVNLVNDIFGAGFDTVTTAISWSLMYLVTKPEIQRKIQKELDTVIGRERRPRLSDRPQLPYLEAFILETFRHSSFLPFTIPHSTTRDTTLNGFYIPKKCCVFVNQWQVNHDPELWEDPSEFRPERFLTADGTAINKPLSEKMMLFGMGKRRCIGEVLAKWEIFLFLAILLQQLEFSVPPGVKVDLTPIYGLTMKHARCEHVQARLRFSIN
# [1] = biological target: T2, Sentrin-specific protease 6 (Homo sapiens, UniProt Q9GZR1); type: functional;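 further: Luminescence-based dose-response confirmatory assay of SENP6 inhibition, following up an ultra-high-throughput screen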
# T2 sequence (Q9GZR1 whole entry): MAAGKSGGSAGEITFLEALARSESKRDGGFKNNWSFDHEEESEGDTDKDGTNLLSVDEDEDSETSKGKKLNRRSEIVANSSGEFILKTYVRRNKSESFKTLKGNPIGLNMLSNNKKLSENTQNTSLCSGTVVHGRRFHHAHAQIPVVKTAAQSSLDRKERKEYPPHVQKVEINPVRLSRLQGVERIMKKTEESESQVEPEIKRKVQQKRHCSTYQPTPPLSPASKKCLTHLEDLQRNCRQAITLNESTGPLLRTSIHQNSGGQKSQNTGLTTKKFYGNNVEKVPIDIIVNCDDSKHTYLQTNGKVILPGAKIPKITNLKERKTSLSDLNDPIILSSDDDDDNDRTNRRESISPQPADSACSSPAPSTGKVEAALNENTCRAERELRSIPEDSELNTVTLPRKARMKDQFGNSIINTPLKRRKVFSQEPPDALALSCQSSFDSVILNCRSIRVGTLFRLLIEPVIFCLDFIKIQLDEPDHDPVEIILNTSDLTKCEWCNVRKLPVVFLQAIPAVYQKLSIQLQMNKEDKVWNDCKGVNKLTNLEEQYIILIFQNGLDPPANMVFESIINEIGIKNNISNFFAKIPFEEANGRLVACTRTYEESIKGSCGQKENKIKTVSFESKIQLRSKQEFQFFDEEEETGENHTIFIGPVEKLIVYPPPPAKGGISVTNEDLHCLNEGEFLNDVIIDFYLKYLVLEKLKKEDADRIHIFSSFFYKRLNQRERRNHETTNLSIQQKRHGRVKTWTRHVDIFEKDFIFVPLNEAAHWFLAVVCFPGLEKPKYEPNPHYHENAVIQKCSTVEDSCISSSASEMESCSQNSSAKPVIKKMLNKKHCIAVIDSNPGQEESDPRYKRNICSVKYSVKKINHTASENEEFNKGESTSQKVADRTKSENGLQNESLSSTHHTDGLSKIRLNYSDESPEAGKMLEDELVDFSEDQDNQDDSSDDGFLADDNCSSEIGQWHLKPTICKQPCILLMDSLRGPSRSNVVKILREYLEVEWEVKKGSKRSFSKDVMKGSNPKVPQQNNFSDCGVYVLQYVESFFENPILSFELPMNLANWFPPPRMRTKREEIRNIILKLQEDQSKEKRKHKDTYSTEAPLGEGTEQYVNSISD
# [2] = biological target: T3, Sentrin-specific protease 7 (Homo sapiens, UniProt Q9BQF6); type: functional;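 further: Luminescence-based dose-response confirmation of ultra-high-throughput screening hits, measuring inhibition of SENP7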
# T3 sequence (Q9BQF6 whole entry): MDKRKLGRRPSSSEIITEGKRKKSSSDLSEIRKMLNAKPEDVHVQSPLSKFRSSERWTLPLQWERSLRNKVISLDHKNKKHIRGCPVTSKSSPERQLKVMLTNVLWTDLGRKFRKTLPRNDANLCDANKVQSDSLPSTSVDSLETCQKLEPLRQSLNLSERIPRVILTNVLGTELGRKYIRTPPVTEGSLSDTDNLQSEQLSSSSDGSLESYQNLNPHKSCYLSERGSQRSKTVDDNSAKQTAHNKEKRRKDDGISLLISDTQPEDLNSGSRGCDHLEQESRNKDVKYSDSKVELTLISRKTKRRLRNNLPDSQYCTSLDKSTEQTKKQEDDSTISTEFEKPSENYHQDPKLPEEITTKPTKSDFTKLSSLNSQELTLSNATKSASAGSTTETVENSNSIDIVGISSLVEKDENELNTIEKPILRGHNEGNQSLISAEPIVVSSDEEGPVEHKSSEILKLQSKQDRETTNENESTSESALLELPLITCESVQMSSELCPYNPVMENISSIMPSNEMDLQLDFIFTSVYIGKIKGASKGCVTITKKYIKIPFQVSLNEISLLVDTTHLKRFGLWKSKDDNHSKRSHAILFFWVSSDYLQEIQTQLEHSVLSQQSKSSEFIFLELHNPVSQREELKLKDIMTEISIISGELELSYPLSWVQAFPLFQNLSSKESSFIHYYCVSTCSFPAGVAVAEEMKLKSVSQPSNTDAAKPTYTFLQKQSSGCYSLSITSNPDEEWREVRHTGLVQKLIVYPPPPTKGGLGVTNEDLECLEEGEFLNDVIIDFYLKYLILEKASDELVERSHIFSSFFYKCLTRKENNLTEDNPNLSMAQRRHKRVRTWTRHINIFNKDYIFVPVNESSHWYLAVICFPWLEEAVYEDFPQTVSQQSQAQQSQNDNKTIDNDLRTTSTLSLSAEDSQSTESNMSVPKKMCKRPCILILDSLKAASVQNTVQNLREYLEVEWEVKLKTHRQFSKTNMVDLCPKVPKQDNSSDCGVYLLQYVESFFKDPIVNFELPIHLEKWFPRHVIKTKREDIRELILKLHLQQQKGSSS
# Caspase-3 = biological target: T4, Caspase-3 (Homo sapiens, UniProt P42574); type: functional;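 further: Dose-response selectivity test against caspase-3 for candidate inhibitors of sentrin-specific proteases (SENPs)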
# T4 sequence (P42574 whole entry): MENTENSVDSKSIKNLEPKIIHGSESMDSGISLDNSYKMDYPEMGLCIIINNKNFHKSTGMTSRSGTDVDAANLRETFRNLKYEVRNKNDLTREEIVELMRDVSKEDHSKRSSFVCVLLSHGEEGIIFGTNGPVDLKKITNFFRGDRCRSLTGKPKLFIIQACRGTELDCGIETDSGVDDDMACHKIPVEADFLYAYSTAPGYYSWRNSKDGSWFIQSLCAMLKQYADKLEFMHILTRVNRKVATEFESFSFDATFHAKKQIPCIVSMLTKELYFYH
# [3] = Luminescence-based cell-based high throughput dose response assay to identify activators of the DAF-12 from the parasite S. stercoralis (ssDAF-12).; type: functional
# [4] = biological target: T5, Sentrin-specific protease 8 (Homo sapiens, UniProt Q96LD8); type: functional;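 further: luminescence read-out of SENP8 inhibition, dose-response confirmation following an ultra-high-throughput screen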
# T5 sequence (Q96LD8 whole entry): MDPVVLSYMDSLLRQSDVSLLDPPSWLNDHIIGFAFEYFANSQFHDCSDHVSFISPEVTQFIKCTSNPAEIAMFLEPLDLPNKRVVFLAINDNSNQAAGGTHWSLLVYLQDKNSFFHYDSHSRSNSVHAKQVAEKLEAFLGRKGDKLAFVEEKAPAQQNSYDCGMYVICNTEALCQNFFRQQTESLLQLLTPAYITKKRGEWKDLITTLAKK
# [5] = biological target: T6, Oxysterols receptor LXR-beta (Homo sapiens, UniProt P55055); experiment: LXR agonists, Gal4 luciferase reporter, dose response, counter-screen for ssDAF-12 agonist project, cell-based, luminescence, HEK293, S. stercoralis campaign (AID 720737); type: functional; settings: read-out: IC50 (the source's name)
# T6 sequence (P55055 whole entry): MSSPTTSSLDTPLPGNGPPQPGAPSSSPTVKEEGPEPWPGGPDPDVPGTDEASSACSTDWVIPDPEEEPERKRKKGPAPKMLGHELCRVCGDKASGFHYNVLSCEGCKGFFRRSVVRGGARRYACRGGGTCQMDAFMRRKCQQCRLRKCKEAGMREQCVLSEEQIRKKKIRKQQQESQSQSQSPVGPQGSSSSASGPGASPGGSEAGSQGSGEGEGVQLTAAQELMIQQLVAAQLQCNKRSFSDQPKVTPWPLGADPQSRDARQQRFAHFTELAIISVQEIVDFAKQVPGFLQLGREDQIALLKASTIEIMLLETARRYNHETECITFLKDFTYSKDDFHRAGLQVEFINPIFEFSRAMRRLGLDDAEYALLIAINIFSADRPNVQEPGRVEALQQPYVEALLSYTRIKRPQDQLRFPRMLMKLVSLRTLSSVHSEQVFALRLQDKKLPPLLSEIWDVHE
# Aminopeptidase N = biological target: T7, Aminopeptidase N (Plasmodium falciparum FcB1/Columbia, UniProt O96935); experiment: P. falciparum M1AAP inhibitors, biochemical, fluorogenic H-Leu-NHMec substrate, 1536-well (AID 1445); parameters: species or system Plasmodium falciparum 3D7, 3D7
# T7 sequence (O96935 whole entry): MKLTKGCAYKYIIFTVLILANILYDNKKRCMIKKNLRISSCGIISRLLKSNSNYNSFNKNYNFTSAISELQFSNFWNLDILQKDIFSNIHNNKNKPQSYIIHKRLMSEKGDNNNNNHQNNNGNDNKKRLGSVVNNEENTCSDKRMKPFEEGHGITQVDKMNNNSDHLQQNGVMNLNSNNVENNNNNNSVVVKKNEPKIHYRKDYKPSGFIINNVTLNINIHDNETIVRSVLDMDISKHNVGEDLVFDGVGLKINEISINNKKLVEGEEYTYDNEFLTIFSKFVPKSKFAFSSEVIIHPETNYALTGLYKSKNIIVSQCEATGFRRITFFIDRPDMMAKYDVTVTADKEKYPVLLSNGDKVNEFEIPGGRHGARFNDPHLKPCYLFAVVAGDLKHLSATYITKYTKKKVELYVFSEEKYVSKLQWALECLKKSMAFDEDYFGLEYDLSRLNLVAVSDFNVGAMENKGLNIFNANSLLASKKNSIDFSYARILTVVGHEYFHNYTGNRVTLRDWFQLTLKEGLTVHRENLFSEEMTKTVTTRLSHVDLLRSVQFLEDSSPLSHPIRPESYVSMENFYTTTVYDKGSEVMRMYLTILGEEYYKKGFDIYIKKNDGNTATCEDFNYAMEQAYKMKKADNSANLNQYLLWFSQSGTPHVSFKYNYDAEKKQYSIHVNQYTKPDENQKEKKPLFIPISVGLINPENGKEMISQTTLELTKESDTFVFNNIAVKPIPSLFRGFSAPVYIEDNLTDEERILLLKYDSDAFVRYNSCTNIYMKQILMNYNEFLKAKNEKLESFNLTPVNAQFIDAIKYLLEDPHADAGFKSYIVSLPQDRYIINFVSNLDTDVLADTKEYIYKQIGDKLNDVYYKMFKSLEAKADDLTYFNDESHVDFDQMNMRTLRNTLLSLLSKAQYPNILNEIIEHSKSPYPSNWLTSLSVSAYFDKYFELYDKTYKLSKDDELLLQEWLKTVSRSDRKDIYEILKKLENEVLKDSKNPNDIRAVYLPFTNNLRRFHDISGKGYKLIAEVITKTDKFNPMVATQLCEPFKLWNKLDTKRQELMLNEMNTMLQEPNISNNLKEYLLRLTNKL
# [6] = P. falciparum Dd2 growth inhibitors, dose response, SYBR Green, cherry-picked samples (AID 1159567); type: functional, cell-based
# [7] = P. falciparum 3D7-ScDHODH growth inhibitors, dose response, SYBR Green, dry powder samples (AID 1159570); type: functional, cell-based;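 further: parasite growth measured after 72 hours of compound exposure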
# [8] = P. falciparum ATP4 D1247Y mutant growth inhibitors, dose response, NITD609-resistant line, SYBR Green, dry powder (AID 1159571); type: functional, cell-based;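 further: parasites synchronized at ring stage by sorbitol before testing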
# [9] = HepG2 cell cytotoxicity, dose response, cytotoxicity control, plate reader, dry powder samples (AID 1159569); type: functional, cell-based;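 further: inhibitor potency with signal falling toward the positive control level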
# Paired box protein Pax-8 = Paired box protein Pax-8 (Homo sapiens, UniProt Q06710); experiment: inhibitors of PAX8-driven TPO luciferase reporter, dose response, RMG-I cells, cherry-pick (AID 687027); type: functional, cell-based;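 further: luciferase reporter driven by Pax8 target thyroperoxidase promoter measured by SteadyGlo luminescence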
# Paired box protein Pax-8, sequence (Q06710 whole entry): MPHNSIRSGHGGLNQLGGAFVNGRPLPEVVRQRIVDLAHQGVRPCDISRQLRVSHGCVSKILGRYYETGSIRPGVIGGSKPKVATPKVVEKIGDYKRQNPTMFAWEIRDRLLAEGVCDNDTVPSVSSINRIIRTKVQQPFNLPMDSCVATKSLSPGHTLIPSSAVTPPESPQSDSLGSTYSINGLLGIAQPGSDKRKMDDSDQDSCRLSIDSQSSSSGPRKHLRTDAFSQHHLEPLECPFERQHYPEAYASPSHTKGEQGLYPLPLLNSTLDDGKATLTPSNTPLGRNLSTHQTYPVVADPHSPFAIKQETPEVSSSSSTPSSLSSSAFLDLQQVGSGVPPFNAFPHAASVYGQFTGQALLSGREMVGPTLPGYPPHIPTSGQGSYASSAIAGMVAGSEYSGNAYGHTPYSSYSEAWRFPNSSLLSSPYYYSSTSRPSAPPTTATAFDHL
# [10] = P. falciparum Dd2 growth inhibitors, dose response, SYBR Green, dry powder samples (AID 1159566); type: functional, cell-based;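 further: potency for growth inhibition with lower SYBR green DNA signal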
# [11] = HeLa 2N DNA content increase, dose response, cell-based, IC50 (AID 1117349); type: functional
# [12] = HeLa 4N DNA content increase, dose response, cell-based, IC50 (AID 1117351); type: functional
# [13] = biological target: Voltage-gated inwardly rectifying potassium channel KCNH2 (Homo sapiens, UniProt Q12809); settings: Potency;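 further: confirmatory quantitative high-throughput screen measuring inhibition of hERG channel activity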
# Voltage-gated inwardly rectifying potassium channel KCNH2, sequence (Q12809 whole entry): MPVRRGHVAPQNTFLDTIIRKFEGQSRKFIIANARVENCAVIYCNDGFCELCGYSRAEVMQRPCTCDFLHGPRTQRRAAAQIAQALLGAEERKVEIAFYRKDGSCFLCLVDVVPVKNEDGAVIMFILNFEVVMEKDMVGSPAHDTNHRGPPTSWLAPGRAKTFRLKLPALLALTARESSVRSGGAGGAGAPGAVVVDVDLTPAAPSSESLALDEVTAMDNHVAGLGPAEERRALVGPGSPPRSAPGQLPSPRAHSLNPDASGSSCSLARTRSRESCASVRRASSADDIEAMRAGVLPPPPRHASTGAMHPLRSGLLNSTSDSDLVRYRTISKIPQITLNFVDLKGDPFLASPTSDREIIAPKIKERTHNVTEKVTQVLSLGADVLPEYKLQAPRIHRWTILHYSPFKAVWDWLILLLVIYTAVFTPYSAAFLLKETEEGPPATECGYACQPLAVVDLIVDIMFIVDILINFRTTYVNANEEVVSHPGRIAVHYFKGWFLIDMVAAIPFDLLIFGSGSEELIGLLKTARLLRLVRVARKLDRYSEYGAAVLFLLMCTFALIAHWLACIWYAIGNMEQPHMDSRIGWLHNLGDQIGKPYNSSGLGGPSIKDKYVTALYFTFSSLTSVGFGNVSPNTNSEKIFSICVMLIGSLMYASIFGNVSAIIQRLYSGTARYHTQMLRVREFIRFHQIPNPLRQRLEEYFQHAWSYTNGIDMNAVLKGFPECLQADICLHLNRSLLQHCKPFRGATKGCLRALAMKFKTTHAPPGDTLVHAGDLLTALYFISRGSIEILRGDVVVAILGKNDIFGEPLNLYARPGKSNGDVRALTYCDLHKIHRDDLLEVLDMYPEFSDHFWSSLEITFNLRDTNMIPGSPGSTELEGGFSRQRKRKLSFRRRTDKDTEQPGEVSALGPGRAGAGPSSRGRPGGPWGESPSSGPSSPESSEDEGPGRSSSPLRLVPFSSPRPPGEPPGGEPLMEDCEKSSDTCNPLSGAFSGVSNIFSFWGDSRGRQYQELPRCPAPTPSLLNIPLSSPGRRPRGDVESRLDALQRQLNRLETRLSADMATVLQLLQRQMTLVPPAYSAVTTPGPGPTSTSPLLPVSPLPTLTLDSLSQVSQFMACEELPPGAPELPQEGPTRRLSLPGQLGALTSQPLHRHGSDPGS
# HEK293 = experiment: inhibitors of LMP1-driven NF-kB reporter, dose response, cell-based, HEK293, luciferase, cherry-pick (AID 588343); type: functional; settings: Homo sapiens
# Kallikrein-7, sequence (P49862 whole entry): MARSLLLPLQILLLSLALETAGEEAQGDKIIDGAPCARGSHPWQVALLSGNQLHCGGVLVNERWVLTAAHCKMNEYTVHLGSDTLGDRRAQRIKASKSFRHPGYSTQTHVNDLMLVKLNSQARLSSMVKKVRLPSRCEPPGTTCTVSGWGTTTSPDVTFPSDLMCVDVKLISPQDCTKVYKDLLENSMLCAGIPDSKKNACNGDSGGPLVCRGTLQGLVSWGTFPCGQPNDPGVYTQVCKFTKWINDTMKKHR
compound,measurement,setting,value
CCC(C)C(NS(=O)(=O)c1ccc(C)cc1)C(=O)Oc1ccc2c3c(c(=O)oc2c1)CCC3 (stereo not given),EC50,Kallikrein-7,> 69.5 µM (inactive)
same,AC50,Cytochrome P450 1A2,11.2 µM (inconclusive)
Cc1ccc(NC(=O)c2oc3ccccc3c2C)nc1,IC50,[1],85.3 µM (active)
same,IC50,[2],7.35 µM (active)
same,IC50,Caspase-3,25.8 µM (active)
same,IC50,[3],> 67.5 µM (inactive)
same,IC50,[4],> 100 µM (inactive)
same,EC50,[5],> 67.5 µM (inactive)
CCN(CC)CCCNc1oc(/C=C/c2ccccc2)nc1C#N,IC50,Aminopeptidase N,61 µM (active)
same,EC50,Kallikrein-7,> 69.5 µM (inactive)
C[C@H](CO)N1C[C@H](C)[C@H](CN(C)S(=O)(=O)c2cccc(F)c2)OCc2ccccc2-c2c(n(C)c3ccccc23)C1=O,AC50,[6],2.07 µM (active)
same,AC50,[7],1.6 µM (active)
same,AC50,[8],620 nM (active)
same,AC50,[9],31.5 µM (active)
same,AC50,Paired box protein Pax-8,11.3 µM (active)
same,AC50,[10],722 nM (active)
Cc1ccc(OC(=O)N(C)C[C@H]2OCc3ccccc3-c3c(n(C)c4ccccc34)C(=O)N([C@H](C)CO)C[C@@H]2C)cc1,AC50,[6],2.53 µM (active)
same,AC50,[7],1.72 µM (active)
same,AC50,[8],1960 nM (active)
same,AC50,[9],22.9 µM (active)
same,AC50,[10],1710 nM (active)
N[C@@H](Cc1ccc(N(CCCl)CCCl)cc1)C(=O)O,IC50,[11],2.26 µM (active)
same,IC50,[12],5.36 µM (inactive)
same,AC50,[13],15.8 µM (inconclusive)
same,AC50,HEK293,10.3 µM (active)
